Experimental data published in patent publication US9618513B2, “Compositions and methods for detecting and treating colorectal cancer” (The Regents of the University of Michigan, priority 2014, dated 2017).
“Also recorded” adds a separate entry of the source.

Key:
STAT3 = test: STAT phosphorylation by western blotting; assay type: cell-based, human; details: colon cancer cells treated with IL-22
Experimental: (A) IL-22 induced STAT3 phosphorylation. Colon cancer cells were treated with IL-22 for different time points. The protein levels of phosphorylated STAT3 and STAT3 were detected by Western blotting. (B, C) IL-22 induced colon cancer spheres via STAT3. Sphere assay was performed with shSTAT3 colon cancer cells in the presence of IL-22. Results were shown as sphere images (b) and the mean numbers of spheres in triplicate (c). (n=5. P<0.01). (D-F) IL-22 stimulated colon cancer sternness gene expression via STAT3. Colon cancer cells expressing shSTAT3 or scrambled vector were cultured with IL-22. Stem cell core gene mRNAs were detected by real-time PCR after 6 hours (n=5, *P<0.05). (G, H) IL-22 causes STAT3 occupancy on SOX2 promoter areas. STAT3-ChIP assay was performed in DLD-1 cells cultured with or without IL-22. One of at least three experiments is shown.
A. The protein level of phosphorylated STAT3, STAT1 and STATS were activated by IL-22. B. The effect of STAT3 knock down. C. The effect of IL-22 on cell proliferation was analyzed using H^3 Thymidine Incorporation in Stat3 knock down cells. D. Knock down of STAT3 reduced the expression of EZH2 and SUZ12. E. Based on the ENCODE STAT3-ChIP-Seq data base, STAT3 occupancy on the promoter areas of SUZ12 and EED is shown. F. SUZ12/EED DNA was detected by ChIP assay using an antibody against STAT3, c-fos was used as a positive control. […]

colon cancer cells = test: Apoptosis by Annexin V FACS; assay type: cell-based, human
Experimental: FIG. 20A-D A. Realtime PCR was used to detected the mRNA level of p53, p21, CCNE1 after stimulated with IL-22 in primary colon cancer cell lines. B. The effect of IL-22 on colon cancer cell apoptosis was analyzed by Annexin V using FACS. C.D The effect of IL-22 on 5-Fu induced apoptosis was also analyzed by Annexin V.

Q: Which “STAT3 activation (phosphorylation)” value (STAT3) does the source give for “IL-22: recombinant IL-22 (R&D systems), cytokine interleukin-22” here?
A: activated; also recorded: activated STAT3 strongly

Q: And the cell apoptosis (colon cancer cells; IL-22 combined with 5-FU)?
A: no change

Q: What about the cell apoptosis (colon cancer cells; IL-22 stimulation alone) of the same substance?
A: no change
